Assay results published in publication PMC5394417, “Investigating the molecular mechanism of positive and negative allosteric modulators in the calcium-sensing receptor dimer” (Scientific Reports, 2017).

Key:
Format in all cases: cell-based
[1] = target: T1, HA-E837A CaSR mutant (Rattus norvegicus, UniProt P48442, E837A); test: IP-One assay, HEK293T transiently transfected; conditions: for EC50 / pEC50 ± S.E.M. / Max ± S.E.M.: HA-E837A; for effect on the Ca^2+-induced response: E837A mutant
T1 construct: mGluR5 signal peptide (N); expressed in transfected cells; host or cells: HEK293T
T1 sequence (P48442 20-1079 E837A): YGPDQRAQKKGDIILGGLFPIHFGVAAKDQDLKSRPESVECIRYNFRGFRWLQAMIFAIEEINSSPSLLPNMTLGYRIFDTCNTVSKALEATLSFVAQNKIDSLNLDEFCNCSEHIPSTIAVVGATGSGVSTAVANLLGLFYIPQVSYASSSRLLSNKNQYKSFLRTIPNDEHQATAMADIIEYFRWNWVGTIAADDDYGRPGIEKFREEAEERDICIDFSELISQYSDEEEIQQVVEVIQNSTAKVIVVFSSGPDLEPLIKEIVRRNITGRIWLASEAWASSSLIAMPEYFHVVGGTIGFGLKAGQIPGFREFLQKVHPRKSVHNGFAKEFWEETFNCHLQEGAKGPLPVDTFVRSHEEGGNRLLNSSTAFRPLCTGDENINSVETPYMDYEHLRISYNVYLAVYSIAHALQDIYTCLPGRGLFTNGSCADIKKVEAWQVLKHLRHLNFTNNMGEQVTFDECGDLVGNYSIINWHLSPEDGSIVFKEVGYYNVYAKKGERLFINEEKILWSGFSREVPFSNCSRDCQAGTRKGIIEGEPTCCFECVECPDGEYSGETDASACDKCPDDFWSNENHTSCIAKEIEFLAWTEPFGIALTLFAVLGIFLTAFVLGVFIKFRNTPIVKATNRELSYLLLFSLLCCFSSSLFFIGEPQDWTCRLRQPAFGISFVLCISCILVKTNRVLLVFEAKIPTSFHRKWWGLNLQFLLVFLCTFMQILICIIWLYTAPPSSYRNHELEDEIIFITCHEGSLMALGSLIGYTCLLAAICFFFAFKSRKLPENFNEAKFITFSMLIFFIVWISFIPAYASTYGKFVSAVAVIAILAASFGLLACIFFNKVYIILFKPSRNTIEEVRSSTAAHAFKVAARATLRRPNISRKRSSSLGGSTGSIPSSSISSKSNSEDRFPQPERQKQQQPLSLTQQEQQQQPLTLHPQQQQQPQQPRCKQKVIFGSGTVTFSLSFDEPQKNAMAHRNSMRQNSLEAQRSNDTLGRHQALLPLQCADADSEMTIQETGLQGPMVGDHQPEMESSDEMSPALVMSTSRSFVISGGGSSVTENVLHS
Experimental: (§1) Human embryonic kidney (HEK) 293T cells were cultured in DMEM supplemented with 10% dFBS and 1% P/S at 37 °C and 5% CO2. 48 h prior to assay, transient transfection was performed using Lipofectamine 2000 as the transfection reagent. White opaque 96-well culture plates (PerkinElmer, Waltham, MA, USA) were used for the ELISA and the TR-FRET dimerization assay, while clear tissue culture treated 96-well plates (Corning, Corning, NY, USA) were used for the IP-One assay. Both plate types were coated with poly-D-lysine before addition of cells and transfection mix. 0.25 μl/well of Lipofectamine 2000 were diluted in 25 μl/well of Opti-MEM and incubated at room temperature (RT) for 5 min. 0.03 μg/well of DNA was diluted in 25 μl/well of Opti-MEM, and subsequently mixed with the Lipofectamine 2000 dilution and incubated 20 min at RT before addition to the plates. Cell suspensions of 170.000 HEK293T cells/mL were prepared in complete growth medium and 100 μl/well (17.000 cells/well) was added to the plates, which were incubated for 48 h at 37 °C and 5% CO2 before performing assays.
(§2) Functional activity was measured using the IP-One assay, which is an IP1 accumulation assay. For agonist testing, ligands were prepared in final concentrations in ligand buffer (HBSS, 20 mM HEPES, pH 7.4 supplemented with 20 mM LiCl). Cells were washed once with 100 μl/well of assay buffer (HBSS, 20 mM HEPES, pH 7.4) and 50 μl/well of agonist solution was added after which plates were incubated at 37 °C for 30 min. Subsequently, ligand solutions were removed and cells were washed with 100 μl/well of assay buffer. Cell lysis was performed by addition of 30 μl/well of IP-One Conjugate & Lysis Buffer (Cisbio Bioassays, Codolet, France) and plates were incubated at RT for 30 min. Afterwards, 30 μl/well of assay buffer was added to dilute the cell lysate. 10 μl/well of cell lysate was transferred from the 96-well plate to a 384-well Optiplate and 10 μl/well of detection solution (Assay buffer + 2.5% of anti-IP1 antibody cryptate Terbium conjugate + 2.5% IP1-d2 conjugate (Cisbio Bioassays, Codolet, France)) was also added. The 384-well plate was incubated for 1 h at RT in dark before being measured on an EnVision plate reader (PerkinElmer, Waltham, MA, USA). Upon excitation at 340 nm, emission at 615 nm and 665 nm was measured, and the FRET ratio (665 nm/615 nm) was converted to IP1 concentrations by interpolating values from an IP1 standard curve generated from a provided IP1 calibrator (Cisbio Bioassays, Codolet, France). When testing allosteric modulators, cells were pre-incubated for 30 min at 37 °C with 50 μl/well of ligand buffer supplemented with allosteric modulator and a final concentration of 1% DMSO. Afterwards, the buffer solution was removed and 50 μl/well of agonist solution in ligand buffer supplemented with allosteric modulator and a final concentration of 1% DMSO was added. Plates were incubated for 30 min at 37 °C followed by one wash in 100 μl/well of assay buffer. Cell lysis and detection was performed as described above.

[2] = target: T2, S170A/E837A:F801A/E837A heterodimer (Rattus norvegicus, UniProt P48442, E837A/F801A/S170A); test: IP-One trans-activation assay, co-expression 1:1 in HEK293T
T2 construct: mGluR5 signal peptide (N); expressed in transfected cells; host or cells: HEK293T
T2 sequence (P48442 20-1079 S170A/E837A): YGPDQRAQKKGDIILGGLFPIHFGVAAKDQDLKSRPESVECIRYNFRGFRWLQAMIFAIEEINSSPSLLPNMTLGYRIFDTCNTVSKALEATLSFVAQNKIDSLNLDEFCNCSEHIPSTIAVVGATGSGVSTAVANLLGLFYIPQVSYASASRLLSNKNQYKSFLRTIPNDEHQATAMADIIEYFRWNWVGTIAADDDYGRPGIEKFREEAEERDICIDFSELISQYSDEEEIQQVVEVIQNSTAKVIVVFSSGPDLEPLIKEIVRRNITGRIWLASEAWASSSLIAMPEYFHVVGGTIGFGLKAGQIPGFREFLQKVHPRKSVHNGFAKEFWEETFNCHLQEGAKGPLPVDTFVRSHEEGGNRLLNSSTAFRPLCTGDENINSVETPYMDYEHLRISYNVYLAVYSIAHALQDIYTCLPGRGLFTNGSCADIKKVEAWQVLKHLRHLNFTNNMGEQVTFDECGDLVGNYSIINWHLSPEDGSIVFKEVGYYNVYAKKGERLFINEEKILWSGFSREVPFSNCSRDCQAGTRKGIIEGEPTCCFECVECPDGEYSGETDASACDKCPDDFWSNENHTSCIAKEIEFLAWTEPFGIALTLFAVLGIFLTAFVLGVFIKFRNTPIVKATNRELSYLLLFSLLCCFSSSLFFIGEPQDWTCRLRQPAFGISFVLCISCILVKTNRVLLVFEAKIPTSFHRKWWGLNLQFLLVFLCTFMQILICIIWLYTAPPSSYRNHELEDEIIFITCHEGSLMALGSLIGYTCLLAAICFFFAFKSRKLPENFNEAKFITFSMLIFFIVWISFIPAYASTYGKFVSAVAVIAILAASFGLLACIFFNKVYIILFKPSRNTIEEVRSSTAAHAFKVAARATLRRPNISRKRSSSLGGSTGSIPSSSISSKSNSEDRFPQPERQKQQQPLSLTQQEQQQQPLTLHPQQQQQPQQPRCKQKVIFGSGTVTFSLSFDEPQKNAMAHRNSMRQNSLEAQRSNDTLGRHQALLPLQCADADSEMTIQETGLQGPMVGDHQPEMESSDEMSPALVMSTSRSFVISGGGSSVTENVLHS
T2 sequence (P48442 20-1079 F801A/E837A): as the sequence (P48442 20-1079 S170A/E837A) above, with A151S, F782A counted along it
Experimental: as §1, §2

[3] = target: T3, S170A:F801A/E837A heterodimer (Rattus norvegicus, UniProt P48442, E837A/F801A/S170A); test: as above
T3 construct: mGluR5 signal peptide (N); expressed in transfected cells; host or cells: HEK293T
T3 sequence (P48442 20-1079 S170A): as the sequence (P48442 20-1079 S170A/E837A) above, with A818E counted along it
T3 sequence (P48442 20-1079 F801A/E837A): as the sequence (P48442 20-1079 S170A/E837A) above, with A151S, F782A counted along it
Experimental: as §1, §2

[Ca+2] [Ca^2+]
EC50 ([1]; Ca^2+ alone): 3.4 mM
pEC50 ± S.E.M. ([1]; Ca^2+ alone): 2.47 ± 0.01
Max ± S.E.M. ([1]; Ca^2+ alone, normalized to maximum response of WT CaSR): 87 ± 16%
EC50 ([1]; Ca^2+ with 1 μM NPS R-568): 3.88 mM
pEC50 ± S.E.M. ([1]; Ca^2+ with 1 μM NPS R-568): 2.41 ± 0.04
Max ± S.E.M. ([1]; Ca^2+ with 1 μM NPS R-568, normalized to maximum response with Ca^2+ alone for the construct): 100 ± 5%
EC50 ([1]; Ca^2+ with 5 μM NPS 2143): 3.46 mM
pEC50 ± S.E.M. ([1]; Ca^2+ with 5 μM NPS 2143): 2.46 ± 0.02
Max ± S.E.M. ([1]; Ca^2+ with 5 μM NPS 2143, normalized to maximum response with Ca^2+ alone for the construct): 91 ± 5.7%

CC(C)(Cc1ccc2ccccc2c1)NC[C@@H](O)COc1cccc(Cl)c1C#N.Cl [NPS 2143, NPS 2143 hydrochloride]
effect on the Ca^2+-induced response ([1]; 5 μM NPS 2143): neither NPS R-568 nor NPS 2143 had any significant effect
inhibition of Ca^2+-mediated response ([2]; S170A/E837A:F801A/E837A heterodimer, 0.2, 1 and 5 μM NPS 2143): not subjected to inhibition
inhibition of Ca^2+-mediated response ([3]; S170A:F801A/E837A heterodimer, 5 μM NPS 2143): full inhibition

COc1cccc([C@@H](C)NCCCc2ccccc2Cl)c1.Cl [NPS R-568, NPS R-568 hydrochloride]
effect on the Ca^2+-induced response ([1]; 1 μM NPS R-568): neither NPS R-568 nor NPS 2143 had any significant effect
potentiation of Ca^2+-mediated response ([2]; S170A/E837A:F801A/E837A heterodimer, 0.05, 0.1 and 1 μM NPS R-568): not potentiated
potentiation of Ca^2+-mediated response ([3]; S170A:F801A/E837A heterodimer, 0.05, 0.1 and 1 μM NPS R-568): potentiated
